Assay [1] concerns PANC-1. Description: Cytotoxicity against human PANC1 cells in nutrient-deprived medium. The format is functional.
In assay [2] the test system is PANC-1. Description: Inhibition of cell migration of human PANC1 cells at 10 uM measured after 48 hrs by wound healing assay (reference value: 100 %). The settings on record: PANC-1, 48 h. The format is functional.
The subject of assay [3] is PANC-1. Description: Inhibition of cell migration of human PANC1 cells at 20 uM measured after 36 hrs by wound healing assay (reference value: 100 %). The format is functional. The settings on record: PANC-1, 36 h.
Assay [4] deals with PANC-1. The assay can be described thus: Inhibition of cell migration of human PANC1 cells measured upto 48 hrs by wound healing assay. In kind it is functional, cell-based.
Assay [5] relates to PANC-1. Description: Inhibition of cell migration of human PANC1 cells at 10 uM measured after 36 hrs by wound healing assay (reference value: 100 %). In kind it is functional. The settings on record: PANC-1, 36 h.
The test system of assay [6] is PANC-1. Description: Inhibition of cell migration of human PANC1 cells at 20 uM measured after 24 hrs by wound healing assay (reference value: 46 %). In kind it is functional. The settings on record: PANC-1, 24 h.
Assay [7] concerns PANC-1. Description: Inhibition of cell migration of human PANC1 cells at 10 uM measured after 24 hrs by wound healing assay (reference value: 46 %). In kind it is functional. The settings on record: PANC-1, 24 h.
The test system of assay [8] is PANC-1. The assay can be described thus: Inhibition of colony formation of human PANC1 cells at 2.5 to 10 uM incubated for 24 hrs followed by compound washout and subsequent incubation for 10 days by crystal violet staining based assay. The format is functional, cell-based.
The test system of assay [9] is PANC-1. The assay can be described thus: Inhibition of cell migration of human PANC1 cells at 20 uM measured after 12 hrs by wound healing assay (reference value: 73 %). The settings on record: PANC-1, 12 h. In kind it is functional.
Assay [10] has as its system PANC-1. Description: Induction of apoptosis in human PANC1 cells assessed as decrease in membrane integrity at 1 nM incubated for 24 hrs by ethidium bromide and acridine orange based phase contrast microscopy analysis. The format is functional, cell-based.
Assay [11] deals with PANC-1. Description: Inhibition of cell migration of human PANC1 cells at 10 uM measured after 12 hrs by wound healing assay (reference value: 73 %). The format is functional. The settings on record: PANC-1, 12 h.
The test system of assay [12] is PANC-1. Description: Inhibition of cell migration of human PANC1 cells at 20 uM measured after 48 hrs by wound healing assay (reference value: 100 %). In kind it is functional. The settings on record: PANC-1, 48 h.

The source made the active and inactive calls. The rule behind the calls is not given here.

On to `CC1(C)CC[C@]2(CO)CC[C@]3(C)C(=CC[C@@H]4[C@@]5(C)CC[C@H](O)C(C)(C)[C@@H]5CC[C@]43C)[C@@H]2C1` [ERYTHRODIOL], for which the PC50 in the assay on PANC-1 [1] was 0.2 µM.
On the same count and under the same terms, for `CC(=O)[C@@H]1CC[C@]2(C(=O)O)CC[C@]3(C)[C@H](CC[C@@H]4[C@@]5(C)CC[C@H](O)C(C)(C)[C@@H]5CC[C@]43C)[C@@H]12` [PLATANIC ACID] the value was 14.2 µM.
For `C=C(C)[C@@H]1CC[C@]2(CO)CC[C@]3(C)[C@H](CC[C@@H]4[C@@]5(C)CC[C@H](O)C(C)(C)[C@@H]5CC[C@]43C)[C@@H]12` [BETULIN], the PC50 with PANC-1 [1] is 0.7 µM.
A word on the inhibition: it is the drop in the measured response relative to a control, in per cent. `CC(C)CC(=O)c1c(O)c2c(c([C@H](C3=C(O)C(C)(C)C(=O)C(C)(C)C3=O)C(C)C)c1O)O[C@]1(C)C=C[C@@H](C(C)C)C[C@H]21`: the inhibition at 10 µM with PANC-1 [2] worked out at 65%; with PANC-1 [5] it was 67%; in the assay with PANC-1 [7] it was 76%; in the assay on PANC-1 [11] it was 87%. Also, the inhibition at 20 µM in the assay on PANC-1 [3] was found to be 89%; with PANC-1 [6] it was 94%; in the assay with PANC-1 [9], 96%; in the assay with PANC-1 [12] it was 80%. Also, in the assay with PANC-1 [4], the inhibition entry is “Dose-dependent effect”. Besides, the inhibition result in the assay with PANC-1 [8] was “Active”. The result in the assay on PANC-1 [10] was Active.
Turning to `C[C@H]1[C@H](C)CC[C@]2(CO)CC[C@]3(C)C(=CC[C@@H]4[C@@]5(C)CC[C@H](O)C(C)(C)[C@@H]5CC[C@]43C)[C@H]12` [UVAOL], the PC50 in the assay on PANC-1 [1] was 5.2 µM.
The same measure, in the same setting: for `C=C(C)[C@@H]1CC[C@]2(C(=O)O)CC[C@]3(C)[C@H](CC[C@@H]4[C@@]5(C)CC[C@H](O)C(C)(C)[C@@H]5CC[C@]43C)[C@@H]12` [BETULINIC ACID] the value was 15.2 µM.
Consider `C[C@H]1[C@H](C)CC[C@]2(C(=O)O)CC[C@]3(C)C(=CC[C@@H]4[C@@]5(C)CC[C@H](O)C(C)(C)[C@@H]5CC[C@]43C)[C@H]12` [URSOLIC ACID], for which the PC50 in the assay with PANC-1 [1] stood at 13.7 µM.
As for `COc1cc(C[C@H]2C(=O)OC[C@@H]2Cc2ccc(OC)c(OC)c2)ccc1O` [ARCTIGENIN], the PC50 in the assay with PANC-1 [1] came out at 0.7 µM.
Same read-out and setting: for `C[C@@H]1CC[C@@]23CC[C@]4(C)[C@@](C=C[C@@H]5[C@@]6(C)CC[C@H](O)C(C)(C)[C@@H]6CC[C@]54C)(OC2=O)C3[C@H]1C` (stereo not given in full) the value was 0.4 µM.
Consider `CC1(C)CC[C@]2(C(=O)O)CC[C@]3(C)C(=CC[C@@H]4[C@@]5(C)CC[C@H](O)C(C)(C)[C@@H]5CC[C@]43C)[C@@H]2C1` [OLEANOLIC_ACID], for which the PC50 in the assay on PANC-1 [1] was 20.5 µM.

The record behind these values is ChEMBL document CHEMBL4622951, “Chemical constituents of Callistemon citrinus from Egypt and their antiausterity activity against PANC-1 human pancreatic cancer cell line” (2020).
